Publication PMC9885526 (ACS Central Science, 2023)

What was measured:
SARS-CoV-2 [1] = settings: cited from earlier work
[2] = system: SARS-CoV-2 (wild-type strain); test: microbe, parasite or virus in culture; format: cell-based; settings: Severe acute respiratory syndrome coronavirus 2
SARS-CoV-2 [3] = system: SARS-CoV-2; design: species or system K18-hACE2 transgenic mice; settings: mouse, in vivo, po, 300 mg/kg
SARS-CoV-2 3CLpro = SARS-CoV-2 3CLpro (Severe acute respiratory syndrome coronavirus 2, UniProt P0DTD1); test: biochemical
[4] = system: SARS-CoV-2 (wild-type strain); test: microbe, parasite or virus in culture; format: cell-based; settings: Severe acute respiratory syndrome coronavirus 2, 48 h
[5] = system: SARS-CoV-2 (wild-type strain); test: microbe, parasite or virus in culture; format: cell-based; settings: Severe acute respiratory syndrome coronavirus 2, Calu-3
in vitro = settings: human
SARS-CoV 3CLpro = SARS-CoV 3CLpro (Severe acute respiratory syndrome coronavirus, UniProt P0C6X7); format: biochemical

O=C(Cn1nnc2ccccc21)N(Cc1cccc(Cl)c1)c1ccc(-c2cnc[nH]2)cc1 [CCF0058981]
EC50 (SARS-CoV-2 [1]): ~0.5 µM

CC(C)(C)[C@H](NC(=O)C(F)(F)F)C(=O)N1C[C@H]2[C@@H]([C@H]1C(=O)N[C@H](C#N)C[C@@H]1CCNC1=O)C2(C)C [PF-07321332, Nirmatrelvir]
EC50 [2]: 0.117 µM | average body weight change (SARS-CoV-2 [3]): did not change

CCC(CCNc1c(C(=O)NC)cc(Br)cc1[N+](=O)[O-])NC(=O)c1cncc2cccc(O)c12 (stereo not shown) [WU-01]
IC50 (SARS-CoV-2 3CLpro): 0.648 ± 0.068 µM

CNC(=O)c1cc(Br)cc([N+](=O)[O-])c1N1CC[C@@]2(CN(C(=O)c3cncc4cc(O)ccc34)C[C@@H]2c2ccccc2)C1 [WU-02]
IC50 (SARS-CoV-2 3CLpro): 0.071 µM | EC50 [4]: 0.054 µM | EC90 [4]: 0.305 µM | EC50 [5]: 0.08 µM | EC90 [5]: 0.201 ± 0.057 µM | CC50 (in vitro): > 20 µM

CNC(=O)c1cc(Br)cc([N+](=O)[O-])c1NC(C(C)C)C1CN(C(=O)c2cncc3cc(O)ccc23)C1 (stereo not shown) [WU-05]
IC50 (SARS-CoV-2 3CLpro): 0.122 ± 0.016 µM

CNC(=O)c1cc(Br)ccc1N[C@@H]1CCCC[C@@H]1NC(=O)c1cncc2ccccc12 [WU-06]
inhibitory activity against SARS-CoV-2 3CLpro (SARS-CoV-2 3CLpro): abolished the activity | inhibition of SARS-CoV 3CLpro enzyme activity (SARS-CoV 3CLpro): showed no activity

CNC(=O)c1cc(Br)cc(C(F)(F)F)c1N[C@@H]1CCCC[C@@H]1NC(=O)c1cncc2ccccc12 [WU-07]
IC50 (SARS-CoV-2 3CLpro): 0.239 ± 0.016 µM

CNC(=O)c1cc(Br)cc(C#N)c1N[C@@H]1CCCC[C@@H]1NC(=O)c1cncc2ccccc12 [WU-08]
IC50 (SARS-CoV-2 3CLpro): 0.467 ± 0.064 µM

CNC(=O)c1cc(Br)cc([N+](=O)[O-])c1N[C@@H]1CCCC[C@@H]1NC(=O)c1cncc2cc(O)ccc12 [WU-09]
IC50 (SARS-CoV-2 3CLpro): 0.221 ± 0.035 µM

CNC(=O)c1cc(Br)cc([N+](=O)[O-])c1N[C@@H]1CCCC[C@@H]1NC(=O)c1cncc2cccc(O)c12 [WU-10]
IC50 (SARS-CoV-2 3CLpro): 0.135 ± 0.008 µM

COC(=O)c1cc(Br)cc([N+](=O)[O-])c1N[C@@H]1CCCC[C@@H]1NC(=O)c1cncc2ccccc12 [WU-11]
IC50 (SARS-CoV-2 3CLpro): 0.849 ± 0.161 µM

O=C(O)c1cc(Br)cc([N+](=O)[O-])c1N[C@@H]1CCCC[C@@H]1NC(=O)c1cncc2ccccc12 [WU-12]
IC50 (SARS-CoV-2 3CLpro): 6.11 ± 2.63 µM
